Source: patent publication US12495798B2, “Nicotinamide compound and herbicidal composition comprising compound” (KOREA RESEARCH INSTITUTE OF CHEMICAL TECHNOLOGY, priority 2019, dated 2025)

Columns and labels:
Format in all cases: in vivo
barnyard grass [1] = assay: Herbicidal activity test against upland field weeds (soil treatment test); set-up: key to Soil treatment herbicidal activity, barnyard grass: 0 (no control); 100 (complete control); settings: 50 g ai/ha, scale 0 (no control) to 100 (complete control)
Procedure: (§1) Experimental Example 2: Herbicidal Activity Test Against Upland Field Weeds (Soil Treatment Test) Soil treatment was performed as follows: After filling a square plastic pot having a surface area of 350 cm^2 with sandy loam mixed with 1 g per pot (350 cm^2) of horticultural mixed fertilizer (N:P:K=11:10:11), seeds (10˜15 grains) or rootstocks (2 pieces) of 5 kinds of grassy weeds of sorghum, barnyard grass, quack grass, crabgrass, fall panicum, and 5 kinds of broadleaf weeds of black nightshade, indian jointvetch, velvetleaf, cocklebur, bindweed, which had been stored in a low temperature (6° C.), were sown. The day after sowing, test compound solutions were made by diluting with a preparation solution (including 50% acetone, 0.1% Tween-20) so that the final treatment amount of the test compounds was 50 or 75 g a.i./ha. The prepared test compound solution was used for treating soil surface by hand-spraying 14 mL per pot in a fume hood. After the treatment, it was managed under the same greenhouse conditions (average temperature 30±5° C., light/dark=14/10 hours), and after 14 days (after 21 days if necessary), the external symptoms and efficacy were investigated according to the scale of 0 (no control) to 100 (complete control). The results of Table 8 were obtained by evaluating weed control value to the untreated control by conducting visual assessment.

fall panicum [2] = assay: Herbicidal activity test against upland field weeds (foliar treatment test); settings: Panicum dichotomiflorum, 50 g ai/ha, scale 0-100
Method in brief: (§2)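 Visual 0–100 control ratings relative to untreated plants, taken 14 (or 21) days after spraying foliage at 50 or 75 g a.i./ha. Spray solution: 50% acetone with 0.1% Tween-20; plants kept in greenhouse at 30±5 °C, 14 h light/10 h dark.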

bindweed [3] = assay: as above; settings: 50 g ai/ha, scale 0-100
Method in brief: as §2

barnyard grass [4] = assay: as above; settings: Echinochloa crus-galli, 50 g ai/ha, scale 0-100
Method in brief: as §2

crabgrass [5] = assay: as above; settings: Digitaria sanguinalis, 50 g ai/ha, scale 0-100
Method in brief: as §2

sorghum [6] = assay: Herbicidal activity test against upland field weeds (soil treatment test); set-up: key to Soil treatment herbicidal activity, Sorghum: 0 (no control); 100 (complete control); settings: 50 g ai/ha, scale 0 (no control) to 100 (complete control); for plant injury at 50 g/ha: Sorghum
Procedure: as §1

quack grass [7] = assay: Herbicidal activity test against upland field weeds (foliar treatment test); set-up: key to Foliar treatment herbicidal activity, quack grass: 0 (no control); 100 (complete control); settings: 50 g ai/ha, scale 0-100
Method in brief: as §2

cocklebur [8] = assay: Herbicidal activity test against upland field weeds (soil treatment test); set-up: key to Soil treatment herbicidal activity, Cocklebur: 0 (no control); 100 (complete control); settings: 50 g ai/ha, scale 0 (no control) to 100 (complete control)
Procedure: as §1

black nightshade [9] = assay: Herbicidal activity test against upland field weeds (foliar treatment test); settings: Solanum nigrum, 50 g ai/ha, scale 0-100
Method in brief: as §2

quack grass [10] = assay: Herbicidal activity test against upland field weeds (soil treatment test); set-up: key to Soil treatment herbicidal activity, quack grass: 0 (no control); 100 (complete control); settings: 50 g ai/ha, scale 0 (no control) to 100 (complete control)
Procedure: as §1

sorghum [11] = assay: Herbicidal activity test against upland field weeds (foliar treatment test); settings: Sorghum, 50 g ai/ha, scale 0-100
Method in brief: as §2

indian jointvetch [12] = assay: as above; settings: 50 g ai/ha, scale 0-100
Method in brief: as §2

crabgrass [13] = assay: Herbicidal activity test against upland field weeds (soil treatment test); set-up: key to Soil treatment herbicidal activity, Crabgrass: 0 (no control); 100 (complete control); settings: 50 g ai/ha, scale 0 (no control) to 100 (complete control)
Procedure: as §1

fall panicum [14] = assay: as above; set-up: key to Soil treatment herbicidal activity, Fall panicum: 0 (no control); 100 (complete control); settings: 50 g ai/ha, scale 0 (no control) to 100 (complete control); for pest or weed control at 50 g/ha: Panicum dichotomiflorum
Procedure: as §1

indian jointvetch [15] = assay: as above; set-up: key to Soil treatment herbicidal activity, Indian jointvetch: 0 (no control); 100 (complete control); settings: 50 g ai/ha, scale 0 (no control) to 100 (complete control)
Procedure: as §1

black nightshade [16] = assay: as above; set-up: key to Soil treatment herbicidal activity, black nightshade: 0 (no control); 100 (complete control); settings: 50 g ai/ha, scale 0 (no control) to 100 (complete control); for pest or weed control at 50 g/ha: Solanum nigrum
Procedure: as §1

cocklebur [17] = assay: Herbicidal activity test against upland field weeds (foliar treatment test); set-up: key to Foliar treatment herbicidal activity, Cocklebur: 0 (no control); 100 (complete control); settings: 50 g ai/ha, scale 0-100; for pest or weed control at 50 g/ha: Xanthium strumarium
Method in brief: as §2

velvetleaf [18] = assay: Herbicidal activity test against upland field weeds (soil treatment test); set-up: key to Soil treatment herbicidal activity, velvet leaf: 0 (no control); 100 (complete control); settings: 50 g ai/ha, scale 0 (no control) to 100 (complete control)
Procedure: as §1

velvetleaf [19] = assay: Herbicidal activity test against upland field weeds (foliar treatment test); set-up: key to Foliar treatment herbicidal activity, velvet leaf: 0 (no control); 100 (complete control); settings: 50 g ai/ha; for pest or weed control at 50 g/ha: Abutilon theophrasti, scale 0-100, read-out: Foliar treatment herbicidal activity, velvet leaf
Method in brief: as §2

bindweed [20] = assay: Herbicidal activity test against upland field weeds (soil treatment test); settings: 50 g ai/ha, scale 0 (no control) to 100 (complete control)
Procedure: as §1

Row | SMILES | Soil treatment herbicidal activity, barnyard grass (barnyard grass [1]) | pest or weed control at 50 g/ha (fall panicum [2]) | pest or weed control at 50 g/ha (bindweed [3]) | pest or weed control at 50 g/ha (barnyard grass [4]) | pest or weed control at 50 g/ha (crabgrass [5]) | Soil treatment herbicidal activity, Sorghum (sorghum [6]) | Foliar treatment herbicidal activity, quack grass (quack grass [7]) | Soil treatment herbicidal activity, Cocklebur (cocklebur [8]) | pest or weed control at 50 g/ha (black nightshade [9]) | Soil treatment herbicidal activity, quack grass (quack grass [10]) | plant injury at 50 g/ha (sorghum [11]) | pest or weed control at 50 g/ha (indian jointvetch [12]) | Soil treatment herbicidal activity, Crabgrass (crabgrass [13]) | Soil treatment herbicidal activity, Fall panicum (fall panicum [14]) | pest or weed control at 50 g/ha (indian jointvetch [15]) | Soil treatment herbicidal activity, velvet leaf (velvetleaf [18]) | pest or weed control at 50 g/ha (fall panicum [14]) | Soil treatment herbicidal activity, Indian jointvetch (indian jointvetch [15]) | pest or weed control at 50 g/ha (cocklebur [17]) | pest or weed control at 50 g/ha (velvetleaf [19]) | further results
1 | CON(Cc1nc(C(F)(F)F)ccc1C(=O)Nc1nnnn1C)Cc1ncnn1C [Compound No. 1-91, 2-((methoxy((1-methyl-1H-1,2,4-triazol-5-yl)methyl)amino)methyl)-N-(1-methyl-1H-tetrazol-5-yl)-6-(trifluoromethyl)nicotinamide] | 0 | 90% | 80% | 98% | 98% | 0 | 0 | 0 | 98% | 0 | 50% | 90% | 0 | 0 | 98% | 100 | – | – | – | – | pest or weed control at 50 g/ha (black nightshade [16]): 98%; Foliar treatment herbicidal activity, Cocklebur (cocklebur [17]): 100; Foliar treatment herbicidal activity, velvet leaf (velvetleaf [19]; scale 0-100): 100
2 | CC(=O)N(C(=O)c1ccc(C(F)(F)F)nc1COCc1nnn(C)n1)c1nnnn1C [Compound No. 2-67, N-acetyl-N-(1-methyl-1H-tetrazol-5-yl)-2-(((2-methyl-2H-tetrazol-5-yl)methoxy)methyl)-6-(trifluoromethyl)nicotinamide] | 100 | 60% | 40% | 70% | 70% | – | 0 | 100 | 95% | 0 | 40% | 80% | 100 | – | – | 100 | 90% | 100 | 95% | 80% | pest or weed control at 50 g/ha (bindweed [20]): 70%; plant injury at 50 g/ha (sorghum [6]): 50%
3 | CON(Cc1nnn(C)n1)Cc1nc(C(F)(F)Cl)ccc1C(=O)Nc1nnnn1C [Compound No. 2-79, 6-(chlorodifluoromethyl)-2-((methoxy((2-methyl-2H-tetrazol-5-yl)methyl)amino)methyl)-N-(1-methyl-1H-tetrazol-5-yl)nicotinamide] | 100 | 50% | 40% | 80% | 70% | – | 0 | 0 | 98% | 0 | 20% | 70% | – | – | – | 100 | 98% | 100 | 60% | 80% | plant injury at 50 g/ha (sorghum [6]): 30%; pest or weed control at 50 g/ha (crabgrass [13]; Digitaria sanguinalis): 95%; Soil treatment herbicidal activity, black nightshade (black nightshade [16]): 100
4 | Cn1cnc(COCc2nc(C(F)(F)Cl)ccc2C(=O)Nc2nnnn2C)n1 [Compound No. 2-80, 6-(chlorodifluoromethyl)-2-(((1-methyl-1H-1,2,4-triazol-3-yl)methoxy)methyl)-N-(1-methyl-1H-tetrazol-5-yl)nicotinamide] | 0 | 60% | 40% | 80% | 40% | 0 | 0 | 0 | 98% | 0 | 20% | 70% | 0 | 0 | 40% | – | – | – | 40% | 98% | pest or weed control at 50 g/ha (black nightshade [16]): 98%; pest or weed control at 50 g/ha (velvetleaf [18]; Abutilon theophrasti, read-out: Soil treatment herbicidal activity, velvet leaf): 98%
5 | CON(Cc1nnn(C)n1)Cc1nc(C(F)F)ccc1C(=O)Nc1nnnn1C [Compound No. 2-86, 6-(difluoromethyl)-2-((methoxy((2-methyl-2H-tetrazol-5-yl)methyl)amino)methyl)-N-(1-methyl-1H-tetrazol-5-yl)nicotinamide] | – | 50% | 40% | 95% | 70% | 0 | 0 | 0 | 95% | 0 | 30% | 80% | 0 | – | – | 100 | 20% | 100 | 80% | 98% | pest or weed control at 50 g/ha (barnyard grass [1]; Echinochloa crus-galli): 98%; Soil treatment herbicidal activity, black nightshade (black nightshade [16]): 100
